Measurements as given in US10188639B2, “Methods of treating neurological, metabolic, and other disorders using enantiopure deuterium-enriched pioglitazone” (DeuteRx, LLC, priority 2014, dated 2019).
Where two headings read alike, the source gives them in different places.

What was measured:
[1] = plasma
Protocol: The plasma samples were incubated at 37° C. in duplicate (anticoagulant: K3EDTA). […] Samples were placed at −80° C. until the study was complete. […] The vortexed samples were centrifuged and 50 μL of supernatant was dispensed in a 96-well plate.
The deuterium in both enantiomers, d-S and d-R, can be lost by D/H exchange to give both protonated enantiomers, h-S and h-R with rate constants kDRR, kDRS, kDSR, and kDSS. At the same time, the protonated enantiomers h-S and h-R can exchange with enantiomerization rate constants kRS and kSR. All four compounds can also degrade with potentially different degradation rate constants kdSd, kdRd, khSd, and khRd.
Human and mouse plasma data were analyzed independently. […] Data in each species was analyzed using a stepwise approach.
The step between calculated time points was minimized in order to minimize the local error (proportional to the square of the step size) and the global error (proportional to the step size).

[2] = tested on: db/db mice; assay: db/db mouse model of type II diabetes, 10-day daily oral dosing; type: in vivo; details: for decrease of IL-1β / decrease of IL-6 / decrease of TNF-α: d-R-pio 20 mg/kg; for adiponectin: d-S-pio 20 mg/kg; for non-essential fatty acids: 20 mg/kg daily oral gavage, 10 days, compared with h-rac-pio 30 mg/kg
Protocol: Body weights were measured throughout the study. Non-fasting blood glucose (10 μL by tail snip) was measured 4 hours prior to first dose, and animals were sorted and assigned to groups based on this measure. […] A terminal blood sample was collected for determination of serum levels of cholesterol, triglycerides, free fatty acids, adiponectin, serum amyloid A, and cytokines IL-1β, IL-6, TNF-α, and MCP-1, using standard analytical methods. Quantitative results were analyzed by statistical methods using, as appropriate, one- or two-way ANOVA or Kruskal-Wallis tests for differences followed by Sidak's, Dunnett's, or Dunn's post-test to determine differences vs. vehicle-treated control animals. All graphs were generated with GraphPad Prism version 6.0.2 (GraphPad Software, Inc., La Jolla, Calif.).

[3] = Body weight gain in male C57BL/6J mice on a standard diet; type: in vivo, mouse; details: twice daily oral gavage for 11 days; overall daily dose h-rac-pio 30 mg/kg, d-S-pio 15 mg/kg, d-R-pio 15 mg/kg; vs. vehicle
Protocol: Male C57BL/6J mice (about 28 g body weight) were acclimated singly-housed for one week to a reverse light/dark cycle with free access to water and standard maintenance diet. Animals were then handled daily for one week followed by another 7 days of twice daily dosing with vehicle (0.5% methylcellulose in water) by oral gavage. […] Body weights were measured twice daily, prior to each dosing, to adjust individual dosing volumes to actual body weights.

[4] = target: human recombinant monoamine oxidase B (Homo sapiens (Human), UniProt P27338); assay: Monoamine oxidase B (MAO-B) inhibition, luminescence assay; type: biochemical
Protocol: The mixtures were incubated at 22° C. for 5 min. Substrate (D-luciferin derivative) was added, and then the mixture was incubated at 37° C. for 60 min. The reaction was stopped by addition of the detection reagent containing luciferase. Luminescence was read after standing for 60 min at room temperature.
Results were expressed as a percentage of the luminescence of the control (enzyme+substrate). IC50 values were obtained by fitting experimental data (mean % luminescence as function of concentration) to the Hill equation with variable slope using non-linear regression analysis.

[5] = Pharmacokinetics in male C57BL/6 mice after oral gavage for 5 days; details: day 5, oral gavage daily; for t1/2 (h) d-S: elimination half-life of d-S-pio; for t1/2 (h) h-R: elimination half-life of h-R-pio; for t1/2 (h) h-R / t1/2 (h) h-S: h-rac-pio 30 mg/kg, d-S-pio and d-R-pio 15 mg/kg; for t1/2 (h) h-S: elimination half-life of h-S-pio
Protocol: (§1) Animals were then euthanized. Plasma was separated by centrifugation and stored at −80° C. until analyzed.
(§2) Concentrations were calculated by interpolation on standard curves generated from mouse plasma samples spiked with known concentrations of the pure analytes.

[6] = mouse, in vivo, po, 15 mg/kg
Protocol: as §1, §2

[7] = 10 days daily oral, h-rac-pio 30 mg/kg, vs. vehicle

Sequence of human recombinant monoamine oxidase B (P27338 whole entry): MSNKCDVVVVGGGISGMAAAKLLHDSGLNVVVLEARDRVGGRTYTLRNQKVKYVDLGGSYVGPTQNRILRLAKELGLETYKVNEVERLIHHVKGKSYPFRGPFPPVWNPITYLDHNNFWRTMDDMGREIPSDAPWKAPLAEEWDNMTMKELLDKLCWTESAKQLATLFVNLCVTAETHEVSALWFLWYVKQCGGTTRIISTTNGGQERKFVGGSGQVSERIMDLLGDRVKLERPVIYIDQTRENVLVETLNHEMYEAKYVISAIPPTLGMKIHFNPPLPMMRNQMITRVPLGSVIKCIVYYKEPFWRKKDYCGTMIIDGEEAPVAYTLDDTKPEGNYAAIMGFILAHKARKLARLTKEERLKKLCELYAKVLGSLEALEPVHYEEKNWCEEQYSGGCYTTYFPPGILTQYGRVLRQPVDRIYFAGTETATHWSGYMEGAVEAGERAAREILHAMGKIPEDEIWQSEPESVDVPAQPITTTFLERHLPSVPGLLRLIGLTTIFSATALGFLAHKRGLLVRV

SMILES | t1/2 of h-R-pio, ln(2)/kRS ([1]; human) [h] | t1/2 of h-S-pio, ln(2)/kSR ([1]; human) [h] | t1/2 of h-R-pio, ln(2)/kRS ([1]; mouse) [h] | t1/2 of h-S-pio, ln(2)/kSR ([1]; mouse) [h] | decrease of IL-1β [2, 7] | decrease of IL-6 [2, 7] | decrease of TNF-α [2, 7] | adiponectin [2, 7] | insulin [2, 7] | percent body weight difference versus day 1 body weight [3] | difference in inhibition efficacy between d-R-pio and d-S-pio [4] | t1/2 (h) d-S ([5]; 15 mg/kg) [h] | t1/2 (h) h-R [5] [h] | t1/2 (h) h-S [5] [h] | AUC0-inf (ng · h/mL) d-R ([5]; plasma d-R-pio, 15 mg/kg) [ng·h/mL] | Cmax (ng/mL) d-R ([5]; plasma d-R-pio, 15 mg/kg) [ng/mL] | non-essential fatty acids [2] | tmax (h) d-R [6] [h]
[2H]C1(Cc2ccc(OCCc3ccc(CC)cn3)cc2)SC(=O)NC1=O (racemic) [d-rac-pio, rac-5-({p-[2-(5-Ethyl-2-pyridyl)ethoxy]phenyl}methyl)-(5-^2H)-1,3-thiazolidine-2,4-dione] | 1.6 | 1.6 | 0.9 | 0.75 | – | – | – | – | – | – | – | – | – | – | – | – | – | –
CCc1ccc(CCOc2ccc(CC3SC(=O)NC3=O)cc2)nc1 (racemic) [h-rac-pio, rac-5-({p-[2-(5-Ethyl-2-pyridyl)ethoxy]phenyl}methyl)-1,3-thiazolidine-2,4-dione, reference compound] | – | – | – | – | trending | trending | trending | significantly increased | significantly decreased | statistically significant increase | – | – | – | – | – | – | – | –
[2H][C@]1(Cc2ccc(OCCc3ccc(CC)cn3)cc2)SC(=O)NC1=O [d-R-pio, (R)-5-({p-[2-(5-Ethyl-2-pyridyl)ethoxy]phenyl}methyl)-(5-^2H)-1,3-thiazolidine-2,4-dione] | – | – | – | – | trending | trending | trending | – | – | did not increase percent body weight difference over vehicle | greater than 5 fold | 0.8 | 2.5 | 2.5 | 18892 | 6360 | a similar trend was observed | 1
[2H][C@@]1(Cc2ccc(OCCc3ccc(CC)cn3)cc2)SC(=O)NC1=O [d-S-pio, (S)-5-({p-[2-(5-Ethyl-2-pyridyl)ethoxy]phenyl}methyl)-(5-^2H)-1,3-thiazolidine-2,4-dione] | – | – | – | – | – | – | – | significantly increased | – | statistically significant increase | – | 2.3 | 3.2 | 3.1 | – | – | a similar trend was observed | –
